Where two headings read alike, the source gives them in different places. Blank lines part the entries; values can stand above or below the molecule they belong to.
Key:
human CB1 receptors = target: T1, human CB1 receptors (Homo sapiens, UniProt P21554); test: cAMP assay, human CB1; format: cell-based
T1 construct: expressed in transfected cells; host or cells: CHO cells
Experimental: (§1) CHO cells expressing human CB1 or CB2 receptors are seeded 17-24 hours prior to the experiment 50.000 cells per well in a black 96 well plate with flat clear bottom (Corning Costar #3904) in DMEM (Invitrogen No. 31331), lx HT supplement, with 10% fetal calf serum and incubated at 5% CO2 and 37° C. in a humidified incubator. The growth medium was exchanged with Krebs Ringer Bicarbonate buffer with 1 mM IBMX and incubated at 30° C. for 30 min. Compounds were added to a final assay volume of 100 μl and incubated for 30 min at 30° C. Using the cAMP-Nano-TRF detection kit the assay (Roche Diagnostics) was stopped by the addition of 50 μl lysis reagent (Tris, NaCl, 1.5% Triton X100, 2.5% NP40, 10% NaN3) and 50 μl detection solutions (20 μM mAb Alexa700-cAMP 1:1, and 48 μM Ruthenium-2-AHA-cAMP) and shaken for 2 h at room temperature. The time-resolved energy transfer is measured by a TRF reader (Evotec Technologies GmbH), equipped with a ND:YAG laser as excitation source. The plate is measured twice with the excitation at 355 nm and at the emission with a delay of 100 ns and a gate of 100 ns, total exposure time 10 s at 730 (bandwidth 30 nm) or 645 nm (bandwidth 75 nm), respectively. The FRET signal is calculated as follows: FRET=T730-Alexa730-P(T645-B645) with P=Ru730-B730/Ru645-B645, where T730 is the test well measured at 730 nM, T645 is the test well measured at 645 nm, B730 and B645 are the buffer controls at 730 nm and 645 nm, respectively. cAMP content is determined from the function of a standard curve spanning from 10 μM to 0.13 nM cAMP.
(§2) EC50 values were determined using Activity Base analysis (ID Business Solution, Limited). The EC50 values for a wide range of cannabinoid agonists generated from this assay were in agreement with the values published in the scientific literature.

human CB2 receptors = target: T2, human CB2 receptors (Homo sapiens, UniProt P34972); test: cAMP assay, human CB2; format: cell-based
T2 construct: expressed in transfected cells; host or cells: CHO cells
Experimental: as §1, §2

[1] = functional cAMP assay, CHO cells expressing human CB1, read-out: Ec50: CB1 - hu cAMP
[2] = functional cAMP assay, CHO cells expressing human CB2, read-out: Ec50: CB2 - hu cAMP

T1 sequence (P21554 whole entry): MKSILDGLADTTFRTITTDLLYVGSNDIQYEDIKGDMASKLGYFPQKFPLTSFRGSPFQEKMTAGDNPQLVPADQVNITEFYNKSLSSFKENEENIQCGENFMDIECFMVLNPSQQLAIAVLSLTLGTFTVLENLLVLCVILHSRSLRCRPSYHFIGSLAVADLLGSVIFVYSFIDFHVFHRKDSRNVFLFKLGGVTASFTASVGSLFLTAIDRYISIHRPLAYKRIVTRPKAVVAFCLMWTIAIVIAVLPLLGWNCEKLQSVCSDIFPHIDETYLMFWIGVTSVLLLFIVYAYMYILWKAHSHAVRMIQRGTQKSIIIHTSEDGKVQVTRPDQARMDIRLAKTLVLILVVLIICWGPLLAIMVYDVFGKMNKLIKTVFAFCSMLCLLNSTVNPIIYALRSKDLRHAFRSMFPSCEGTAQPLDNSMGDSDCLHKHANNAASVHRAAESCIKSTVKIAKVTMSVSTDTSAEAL
T2 sequence (P34972 whole entry): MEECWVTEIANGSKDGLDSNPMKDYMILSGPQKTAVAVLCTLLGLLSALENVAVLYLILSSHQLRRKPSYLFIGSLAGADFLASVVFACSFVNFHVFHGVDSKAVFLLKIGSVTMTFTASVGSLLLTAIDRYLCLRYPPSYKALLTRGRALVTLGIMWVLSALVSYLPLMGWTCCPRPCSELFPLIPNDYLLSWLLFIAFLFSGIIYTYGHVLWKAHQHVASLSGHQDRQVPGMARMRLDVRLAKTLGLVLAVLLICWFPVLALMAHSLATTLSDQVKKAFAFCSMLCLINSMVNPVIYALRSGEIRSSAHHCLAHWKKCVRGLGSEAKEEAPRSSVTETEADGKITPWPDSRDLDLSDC

SMILES: CCN(Cc1ccccc1)C(=O)n1nnn(-c2cccc(F)c2)c1=O [Example 12, 4-(3-Fluoro-phenyl)-5-oxo-4,5-dihydro-tetrazole-1-carboxylic acid benzyl-ethyl-amide]
- EC50 (human CB1 receptors): > 10 µM
- EC50 (human CB2 receptors): 0.0006 µM

SMILES: CCCN(CCOC)C(=O)n1nnn(-c2cccc(F)c2)c1=O [Example 56, 4-(3-Fluoro-phenyl)-5-oxo-4,5-dihydro-tetrazole-1-carboxylic acid (2-methoxy-ethyl)-propyl-amide]
- EC50 (human CB1 receptors): > 10 µM
- EC50 (human CB2 receptors): 0.017 µM

SMILES: CCN(CCOC)C(=O)n1nnn(-c2cccc(Cl)c2)c1=O [Example 80, 4-(3-Chloro-phenyl)-5-oxo-4,5-dihydro-tetrazole-1-carboxylic acid ethyl-(2-methoxy-ethyl)-amide]
- EC50 (human CB1 receptors): > 10 µM
- EC50 (human CB2 receptors): 0.0024 µM

SMILES: COCCCN(C)C(=O)n1nnn(-c2cccc(OC(F)(F)F)c2)c1=O [Example 87, 5-Oxo-4-(3-trifluoromethoxy-phenyl)-4,5-dihydro-tetrazole-1-carboxylic acid (3-methoxy-propyl)-methyl-amide]
- EC50 (human CB1 receptors): > 10 µM
- EC50 (human CB2 receptors): 0.0036 µM

SMILES: O=C(N1CCN(c2cnccn2)CC1)n1nnn(-c2cccc(F)c2)c1=O [Example 30, 1-(3-Fluoro-phenyl)-4-(2,3,5,6-tetrahydro-[1,2′]bipyrazinyl-4-carbonyl)-1,4-dihydro-tetrazol-5-one]
- EC50 (human CB1 receptors; [1]): > 10 µM
- EC50 (human CB2 receptors; [2]): 0.205 µM

SMILES: CCOC(=O)C(C)(C)n1nnn(-c2cccc(F)c2)c1=O [Example 16, 2-[4-(3-Fluoro-phenyl)-5-oxo-4,5-dihydro-tetrazol-1-yl]-2-methyl-propionic acid ethyl ester]
- EC50 (human CB1 receptors; [1]): > 10 µM
- EC50 (human CB2 receptors; [2]): 0.327 µM

SMILES: COc1ccc(-n2nnn(C(=O)N3CCOCC3)c2=O)cc1 [Example 130, 1-(4-methoxyphenyl)-4-(morpholine-4-carbonyl)tetrazol-5-one]
- EC50 (human CB1 receptors; [1]): > 10 µM
- EC50 (human CB2 receptors; [2]): 0.0067 µM

SMILES: CCN(CCOC)C(=O)n1nnn(-c2cccc(OC(F)(F)F)c2)c1=O [Example 81, 5-Oxo-4-(3-trifluoromethoxy-phenyl)-4,5-dihydro-tetrazole-1-carboxylic acid ethyl-(2-methoxy-ethyl)-amide]
- EC50 (human CB1 receptors; [1]): > 10 µM
- EC50 (human CB2 receptors; [2]): 0.004 µM

SMILES: CC1(C)CCCN1C(=O)n1nnn(-c2cccc(F)c2)c1=O [Example 46, 1-(2,2-Dimethyl-pyrrolidine-1-carbonyl)-4-(3-fluoro-phenyl)-1,4-dihydro-tetrazol-5-one]
- EC50 (human CB1 receptors; [1]): > 10 µM
- EC50 (human CB2 receptors; [2]): 0.0902 µM

SMILES: O=C(N1CCOCC1)n1nnn(-c2ccccc2C(F)(F)F)c1=O [Example 119, 1-(morpholine-4-carbonyl)-4-[2-(trifluoromethyl)phenyl]tetrazol-5-one]
- EC50 (human CB1 receptors; [1]): > 10 µM
- EC50 (human CB2 receptors; [2]): 0.386 µM

SMILES: NC(=O)[C@@H]1CCCN1C(=O)n1nnn(-c2cccc(F)c2)c1=O [Example 22, (S)-1-[4-(3-Fluoro-phenyl)-5-oxo-4,5-dihydro-tetrazole-1-carbonyl]-pyrrolidine-2-carboxylic acid amide]
- EC50 (human CB1 receptors; [1]): > 10 µM
- EC50 (human CB2 receptors; [2]): 1.92 µM

SMILES: COC[C@@H]1CCCN1C(=O)n1nnn(-c2cccc(F)c2)c1=O [Example 21, 1-(3-Fluoro-phenyl)-4-((S)-2-methoxymethyl-pyrrolidine-1-carbonyl)-1,4-dihydro-tetrazol-5-one]
- EC50 (human CB1 receptors; [1]): > 10 µM
- EC50 (human CB2 receptors; [2]): 0.0975 µM

SMILES: O=C(CN1CCN(C(=O)n2nnn(-c3cccc(OC(F)(F)F)c3)c2=O)CC1)N1CCOCC1 [Example 90, 1-[4-(2-Morpholin-4-yl-2-oxo-ethyl)-piperazine-1-carbonyl]-4-(3-trifluoromethoxy-phenyl)-1,4-dihydro-tetrazol-5-one]
- EC50 (human CB1 receptors; [1]): > 10 µM
- EC50 (human CB2 receptors; [2]): 0.067 µM

SMILES: CN(CCC#N)C(=O)n1nnn(-c2cccc(F)c2)c1=O [Example 2, 4-(3-Fluoro-phenyl)-5-oxo-4,5-dihydro-tetrazole-1-carboxylic acid (2-cyano-ethyl)-methyl-amide]
- EC50 (human CB1 receptors; [1]): > 10 µM
- EC50 (human CB2 receptors; [2]): 0.0115 µM

Continued, values first:

- EC50 (human CB1 receptors; [1]): > 10 µM
- EC50 (human CB2 receptors; [2]): 0.0076 µM
SMILES: Cn1ccc2c(-n3nnn(C(=O)N4CCOCC4)c3=O)cccc21 [Example 132, 1-(1-methylindol-4-yl)-4-(morpholine-4-carbonyl)tetrazol-5-one]

- EC50 (human CB1 receptors; [1]): > 10 µM
- EC50 (human CB2 receptors; [2]): 0.0139 µM
SMILES: CCCCNC(=O)CN1CCN(C(=O)n2nnn(-c3cccc(OC(F)(F)F)c3)c2=O)CC1 [Example 108, N-Butyl-2-{4-[5-oxo-4-(3-trifluoromethoxy-phenyl)-4,5-dihydro-tetrazole-1-carbonyl]-piperazin-1-yl}-acetamide]

- EC50 (human CB1 receptors; [1]): > 10 µM
- EC50 (human CB2 receptors; [2]): 0.152 µM
SMILES: CN(C(=O)n1nnn(-c2cccc(F)c2)c1=O)c1ccccn1 [Example 32, 4-(3-Fluoro-phenyl)-5-oxo-4,5-dihydro-tetrazole-1-carboxylic acid methyl-pyridin-2-yl-amide]

- EC50 (human CB1 receptors; [1]): > 10 µM
- EC50 (human CB2 receptors; [2]): 0.898 µM
SMILES: Cn1c(Cn2nnn(-c3cccc(F)c3)c2=O)nnc1S(C)(=O)=O [Example 17, 1-(3-Fluoro-phenyl)-4-(5-methanesulfonyl-4-methyl-4H-[1,2,4]triazol-3-ylmethyl)-1,4-dihydro-tetrazol-5-one]

- EC50 (human CB1 receptors; [1]): > 10 µM
- EC50 (human CB2 receptors; [2]): 0.0178 µM
SMILES: CC(=O)NC1CCN(C(=O)n2nnn(-c3cccc(F)c3)c2=O)CC1 [Example 26, N-{1-[4-(3-Fluoro-phenyl)-5-oxo-4,5-dihydro-tetrazole-1-carbonyl]-piperidin-4-yl}-acetamide]

- EC50 (human CB1 receptors; [1]): > 10 µM
- EC50 (human CB2 receptors; [2]): 0.497 µM
SMILES: CCC(=O)N1CCN(C(=O)n2nnn(-c3cccc(F)c3)c2=O)CC1 [Example 39, 1-(3-Fluoro-phenyl)-4-(4-propionyl-piperazine-1-carbonyl)-1,4-dihydro-tetrazol-5-one]

- EC50 (human CB1 receptors; [1]): > 10 µM
- EC50 (human CB2 receptors; [2]): 0.0008 µM
SMILES: CCN(Cc1ccncc1)C(=O)n1nnn(-c2cccc(F)c2)c1=O [Example 6, 4-(3-Fluoro-phenyl)-5-oxo-4,5-dihydro-tetrazole-1-carboxylic acid ethyl-pyridin-4-ylmethyl-amide]

- EC50 (human CB1 receptors; [1]): > 10 µM
- EC50 (human CB2 receptors; [2]): 0.0182 µM
SMILES: CC(=O)N[C@H]1CCN(C(=O)n2nnn(-c3cccc(OC(F)(F)F)c3)c2=O)C1 [Example 69, N—{(S)-1-[5-Oxo-4-(3-trifluoromethoxy-phenyl)-4,5-dihydro-tetrazole-1-carbonyl]-pyrrolidin-3-yl}-acetamide]

- EC50 (human CB1 receptors; [1]): > 10 µM
- EC50 (human CB2 receptors; [2]): 0.0097 µM
SMILES: Cc1cc(C2CCCN2C(=O)n2nnn(-c3cccc(Cl)c3)c2=O)on1 (centres unmarked) [Example 74, 1-(3-Chloro-phenyl)-4-[2-(3-methyl-isoxazol-5-yl)-pyrrolidine-1-carbonyl]-1,4-dihydro-tetrazol-5-one]

- EC50 (human CB1 receptors; [1]): > 10 µM
- EC50 (human CB2 receptors; [2]): 0.0428 µM
SMILES: O=C(CN1CCN(C(=O)n2nnn(-c3ccc(Cl)cc3)c2=O)CC1)N1CCOCC1 [Example 91, 1-(4-Chloro-phenyl)-4-[4-(2-morpholin-4-yl-2-oxo-ethyl)-piperazine-1-carbonyl]-1,4-dihydro-tetrazol-5-one]

- EC50 (human CB1 receptors; [1]): > 10 µM
- EC50 (human CB2 receptors; [2]): 0.0032 µM
SMILES: O=C(N1CCC(c2ccccc2)C1)n1nnn(-c2cccc(F)c2)c1=O (centres unmarked) [Example 41, 1-(3-Fluoro-phenyl)-4-(3-phenyl-pyrrolidine-1-carbonyl)-1,4-dihydro-tetrazol-5-one]

- EC50 (human CB1 receptors; [1]): > 10 µM
- EC50 (human CB2 receptors; [2]): 0.0008 µM
SMILES: CC1(C)CCN(C(=O)n2nnn(-c3cccc(F)c3)c2=O)CC1 [Example 28, 1-(4,4-Dimethyl-piperidine-1-carbonyl)-4-(3-fluoro-phenyl)-1,4-dihydro-tetrazol-5-one]

- EC50 (human CB1 receptors; [1]): > 10 µM
- EC50 (human CB2 receptors; [2]): 0.0032 µM
SMILES: O=C(N1CCOCC1)n1nnn(-c2cccc(Cl)c2)c1=O [Example 101, 1-(3-Chloro-phenyl)-4-(morpholine-4-carbonyl)-1,4-dihydro-tetrazol-5-one]

- EC50 (human CB1 receptors; [1]): > 10 µM
- EC50 (human CB2 receptors; [2]): 0.027 µM
SMILES: CCN(C(C)=O)C1CCN(C(=O)n2nnn(-c3cccc(OC(F)(F)F)c3)c2=O)C1 (centres unmarked) [Example 72, N-Ethyl-N-{1-[5-oxo-4-(3-trifluoromethoxy-phenyl)-4,5-dihydro-tetrazole-1-carbonyl]-pyrrolidin-3-yl}-acetamide]

- EC50 (human CB1 receptors; [1]): > 10 µM
- EC50 (human CB2 receptors; [2]): 0.0242 µM
SMILES: CN(C)C(=O)CN1CCN(C(=O)n2nnn(-c3cccc(OC(F)(F)F)c3)c2=O)CC1 [Example 93, N,N-Dimethyl-2-{4-[5-oxo-4-(3-trifluoromethoxy-phenyl)-4,5-dihydro-tetrazole-1-carbonyl]-piperazin-1-yl}-acetamide]

- EC50 (human CB1 receptors; [1]): > 10 µM
- EC50 (human CB2 receptors; [2]): 0.0108 µM
SMILES: CCN(C(C)=O)C1CCN(C(=O)n2nnn(-c3ccc(Cl)cc3)c2=O)C1 (centres unmarked) [Example 73, N-{1-[4-(4-Chloro-phenyl)-5-oxo-4,5-dihydro-tetrazole-1-carbonyl]-pyrrolidin-3-yl}-N-ethyl-acetamide]

- EC50 (human CB1 receptors; [1]): > 10 µM
- EC50 (human CB2 receptors; [2]): 1.18 µM
SMILES: O=c1n(Cc2ccc(F)cc2)nnn1-c1cccc(F)c1 [Example 14, 1-(4-Fluoro-benzyl)-4-(3-fluoro-phenyl)-1,4-dihydro-tetrazol-5-one]

Source: patent publication US20160083357A1, “NOVEL TETRAZOLONE DERIVATIVES” (Hoffmann-La Roche Inc., priority 2013, published 2016)
